Test results from paper PMC3750913 (BMC Microbiology, 2013).
Like-named read-outs stand apart in the source and are kept apart here.

Legend:
HCV [1] = type: cell-based, hepatitis C virus; conditions: Huh-7.5 cells
DENV-2 [2] = assay: Viral inactivation assay; type: cell-based, dengue virus type 2; conditions: Dengue virus
RSV [3] = assay: Viral inactivation assay; type: cell-based, respiratory syncytial virus; conditions: for block of infection after pre-incubation of free virus with compound: RSV, CHLA 1 μM, PUG 2 μM, Figure 3
HCMV [4] = assay: Viral attachment assay, method 1 (host cell infection); type: cell-based, human cytomegalovirus; conditions: Human betaherpesvirus 5, HEL, read-out: Window of antiviral effects: Attachment Method 1, inhibitory effect relative to DMSO control
HCV [5] = assay: as above; type: cell-based, hepatitis C virus; conditions: for inhibition of virus attachment: HCV, method 1, 4°C, Figure 4; for inhibition at 50 µM: Hepatitis C virus, Huh7.5, read-out: Window of antiviral effects: Attachment Method 1, inhibitory effect relative to DMSO control
MV [6] = assay: as above; type: cell-based, measles virus; conditions: for inhibition of entry (virus attachment): MV, method 1, 4°C, Figure 4, PUG more effective than CHLA
RSV [7] = assay: as above; type: cell-based, respiratory syncytial virus; conditions: for inhibition of virus attachment: RSV, method 1, 4°C, Figure 4
HCMV [8] = assay: Viral attachment assay, method 2 (virus-specific cellular ELISA); type: cell-based, human cytomegalovirus; conditions: HCMV MOI 5, ELISA, 4°C; highest inhibitory concentration of the compounds
MV [9] = assay: as above; type: cell-based, measles virus; conditions: MV MOI 1, ELISA, 4°C; highest inhibitory concentration of the compounds
RSV [10] = assay: as above; type: cell-based, respiratory syncytial virus; conditions: RSV MOI 5, ELISA, 4°C; highest inhibitory concentration of the compounds
HCV [11] = assay: Viral penetration assay; type: cell-based, hepatitis C virus; conditions: for inhibition at 50 µM: Hepatitis C virus, Huh7.5, read-out: Window of antiviral effects: Penetration, inhibitory effect relative to DMSO control
DENV-2 [12] = assay: Viral penetration assay; type: cell-based, dengue virus type 2; conditions: DENV-2; shift 4°C to 37°C; Figure 4
MV [13] = assay: Viral penetration assay; type: cell-based, measles virus
RSV [14] = assay: Viral penetration assay; type: cell-based, respiratory syncytial virus
HCMV [15] = assay: Analysis of drug effects post viral entry; type: cell-based, human cytomegalovirus; conditions: for protection, treatment post-infection: HCMV, Figure 6
HCMV [16] = assay: Viral cell-to-cell spread assay; type: cell-based, human cytomegalovirus; conditions: for effect on viral plaque size (cell-to-cell spread): HCMV, Figure 7
HCV [17] = assay: Viral cell-to-cell spread assay; type: cell-based, hepatitis C virus; conditions: for effect on viral plaque size (cell-to-cell spread): HCV, Figure 7; for inhibition at 50 µM: Hepatitis C virus, Huh7.5, read-out: Window of antiviral effects: Cell-to-cell spread, inhibitory effect relative to DMSO control
Method: (A) Schematic of the experiment (left) with the virus concentration (PFU/well) and step-wise incubation periods (i, ii, iii) indicated for each virus in the table on the right. Virus infections were established (i) in the different cell types by direct inoculation (HCMV, DENV-2, MV, and RSV) or electroporation of viral RNA (HCV; *), and the cell monolayers were washed with citrate buffer or PBS before being covered with an overlay medium that prevents secondary infection. Initial virus plaques were allowed to form in the subsequent infections (ii), and then the test compounds were added to the overlay medium for an additional time of incubation (iii) before analysis of viral plaque size by immune fluorescence microscopy. Five random virus-positive plaques at the endpoint of the experiment were evaluated for each treatment group of viruses, and the data was plotted as “fold change of plaque area” against the size of the initial viral plaques formed prior to test compound treatment. Analyses for (B) HCMV, (C) HCV, (D) DENV-2, (E) MV, and (F) RSV are indicated in each additional panel. The S29 cell line and the FIP inhibitor were included as controls for HCV and MV, respectively. Results shown are means ± SEM from three independent experiments and representative micrographs of the evaluated plaques are provided in Additional file 1 Figure S1, Additional file 2 Figure S2, Additional file 3 Figure S3, Additional file 4 Figure S4 and Additional file 5 Figure S5. See text for details.
The examination of HCV spread is based on previously described protocol with some modifications. Huh-7.5 cells were electroporated with HCV Jc1FLAG2(p7-nsGluc2A) RNA (10 μg) as described above to establish random productive infections in the cell population, and then mixed with naïve cells at a ratio of 1:1 before seeding in 12-well plates. […] Medium was changed 24 h post-electroporation with an overlay medium containing the test drugs or control and 0.5% methylcellulose, and the plates were further incubated for 5 days before analysis of HCV-positive foci through immunostaining.
For immunofluorescence analysis of viral plaque size due to spread, the overlay media were removed and the wells were fixed with ice-cold methanol before blocking with 3% BSA. Samples were then treated at 37°C for 1 h with the respective mouse monoclonal primary antibodies diluted in PBS containing 3% BSA: anti-HCMV gB antibody (1:1,000), anti-NS5A 9E10 antibody for HCV (1:25,000), anti-flavivirus group antibody (1:400) for DENV-2, and anti-RSV fusion protein antibody (1:1,000). After incubation, the wells were washed with PBS three times before applying Alexa Fluor 488 goat anti-mouse IgG (H + L) antibody (Invitrogen), diluted at 1:1,000 (HCMV and RSV) or 1:400 (DENV-2 and HCV) in PBS containing 3% BSA. Following incubation at 37°C for 1 h, the samples were washed with PBS three times prior to visualization by fluorescence microscopy. The fluorescence expression of MV-EGFP could be readily detected without addition of antibodies. Photomicrographs were taken at × 100 magnification (Leica Microsystems; Wetzlar, Germany) and viral plaque sizes were then analyzed with MetaMorph software (Molecular Devices; Sunnyvale, CA, USA). In the case of HCV, cellular nuclei were stained with Hoechst dye (Sigma) prior to visualization and the number of cells in the virus-positive foci was determined. For all virus tested, a total of five random virus-positive plaques were evaluated for each treatment group per independent experiment. Comparison was made between viral plaques stained prior to drug addition and those at the endpoint of the experiment, and the data were plotted as “fold change of plaque area”.

RSV [18] = assay: Viral cell-to-cell spread assay; type: cell-based, respiratory syncytial virus; conditions: for effect on viral plaque size (cell-to-cell spread): RSV, Figure 7
[19] = DENV2, Vero, read-out: Window of antiviral effects: Free particle, inhibitory effect relative to DMSO control
[20] = DENV2, read-out: inhibition of infection after pre-incubation of free virus with compound
[21] = human respiratory syncytial virus, HEp-2, read-out: Window of antiviral effects: Free particle, inhibitory effect relative to DMSO control
[22] = Measles morbillivirus, read-out: Window of antiviral effects: Attachment Method 1, inhibitory effect relative to DMSO control
[23] = human respiratory syncytial virus, HEp-2, read-out: Window of antiviral effects: Attachment Method 1, inhibitory effect relative to DMSO control
[24] = Measles morbillivirus, read-out: Window of antiviral effects: Penetration, inhibitory effect relative to DMSO control
[25] = human respiratory syncytial virus, HEp-2, read-out: Window of antiviral effects: Penetration, inhibitory effect relative to DMSO control
[26] = Human betaherpesvirus 5, HEL, read-out: Window of antiviral effects: Cell-to-cell spread, inhibitory effect relative to DMSO control
[27] = human respiratory syncytial virus, HEp-2, read-out: Window of antiviral effects: Cell-to-cell spread, inhibitory effect relative to DMSO control

| Structure (SMILES) | SI (selectivity index, CC50/EC50) (HCV [1]) | inhibition at 25 µM (DENV-2 [2]; [19]) [%] | inhibition at 25 µM (DENV-2 [2]; [20]) [%] | block of infection after pre-incubation of free virus with compound (RSV [3]) | inhibition of virus attachment (HCV [5]) | inhibition at 50 µM (HCV [5]) [%] | inhibition of entry (virus attachment) (MV [6]) | inhibition of virus attachment (RSV [7]) | Window of antiviral effects: Attachment Method 2, inhibitory effect relative to DMSO control (HCMV [8]) | Window of antiviral effects: Attachment Method 2, inhibitory effect relative to DMSO control (MV [9]) | Window of antiviral effects: Attachment Method 2, inhibitory effect relative to DMSO control (RSV [10]) | inhibition at 50 µM (HCV [11]) [%] | protection, treatment post-infection (HCMV [15]) | effect on viral plaque size (cell-to-cell spread) (HCMV [16]) | effect on viral plaque size (cell-to-cell spread) (HCV [17]) | inhibition at 50 µM (HCV [17]) [%] | effect on viral plaque size (cell-to-cell spread) (RSV [18]) | further results |
| --- | --- | --- | --- | --- | --- | --- | --- | --- | --- | --- | --- | --- | --- | --- | --- | --- | --- | --- |
| O=C1O[C@H]2[C@@H]3OC(=O)c4cc(O)c(O)c(O)c4-c4c(O)c(O)c5oc(=O)c6c(c(O)c(O)c7oc(=O)c4c5c76)-c4c(cc(O)c(O)c4O)C(=O)OC[C@H]3OC(O)[C@@H]2OC(=O)c2cc(O)c(O)c(O)c2-c2c1cc(O)c(O)c2O (mixture of isomers) [PUG, punicalagin] | 13.31 | > 75 | ~100 | 60 – 80% | 90 – 100% | > 75 | 50 – 80% | 90 – 100% | ++ (++ 50–75%) | ++ (++ 50–75%) | +++ (+++ > 75%) | > 75 | 80 – 100% | near initial size | near initial size | > 75 | unaffected and expanded further | inhibition at 2 µM (RSV [3]; [21]): > 75%; inhibition at 40 µM (HCMV [4]): 50 to 75%; inhibition at 50 µM (MV [6]; [22]): > 75%; inhibition at 2 µM (RSV [7]; [23]): > 75%; protection of the host cell from infection during virus penetration (HCV [11]; HCV, shift 4°C to 37°C, Figure 4): 50 – 90%; protection of the host cell from infection during virus penetration (DENV-2 [12]): 50 – 90%; protection of the host cell from infection during virus penetration (MV [13]; MV, shift 4°C to 37°C, Figure 4): 50 – 90%; inhibition at 50 µM (MV [13]; [24]): > 75%; protection of the host cell from infection during virus penetration (RSV [14]; RSV, shift 4°C to 37°C, Figure 4): 50 – 90%; inhibition at 2 µM (RSV [14]; [25]): > 75%; inhibition at 40 µM (HCMV [15]; Human betaherpesvirus 5, HEL, read-out: Window of antiviral effects: Post-infection, inhibitory effect relative to DMSO control): > 75%; inhibition at 40 µM (HCMV [16]; [26]): > 75%; inhibition at 2 µM (RSV [18]; [27]): < 25% |
| O=C(O)C[C@@H]1C(=O)O[C@H]2[C@@H]3OC(=O)c4cc(O)c(O)c(O)c4-c4c(cc(O)c(O)c4O)C(=O)OC[C@H]2O[C@@H](OC(=O)c2cc(O)c(O)c(O)c2)[C@@H]3OC(=O)c2cc(O)c(O)c3c2[C@H]1[C@H](O)C(=O)O3 [CHLA, chebulagic acid] | 19.54 | > 75 | ~100 | 60 – 80% | 90 – 100% | > 75 | 50 – 80% | 90 – 100% | +++ (+++ > 75%) | ++ (++ 50–75%) | +++ (+++ > 75%) | > 75 | 80 – 100% | near initial size | near initial size | > 75 | unaffected and expanded further | inhibition at 1 µM (RSV [3]; [21]): > 75%; inhibition at 90 µM (MV [6]; [22]): 50 to 75%; inhibition at 1 µM (RSV [7]; [23]): > 75%; inhibition at 90 µM (MV [13]; [24]): 50 to 75%; inhibition at 1 µM (RSV [14]; [25]): 50 to 75%; inhibition at 60 µM (HCMV [16]; [26]): > 75%; inhibition at 1 µM (RSV [18]; [27]): < 25% |
